The structures appear in SMILES notation. Where a name gives a salt, the structure may show the parent alone.

The term melting point denotes the temperature of the solid-liquid transition.

`O=c1cc(-c2ccncc2)nc2n(CCCCc3ccccc3)ccn12` (as salt: hydrochloride) [Compound 14, 1-[4-(phenyl)butyl]-7-pyridin-4-ylimidazo[1,2-a]pyrimidin-5(1H)-one] had a melting point of 206 to 208 °C. The same measure for `O=c1cc(-c2cccnc2)nc2n(CCCc3ccccc3)ccn12` (as salt: hydrochloride) [Compound 15, 1-[3-(phenyl)propyl]-7-pyridin-3-ylimidazo[1,2-a]pyrimidin-5(1H)-one]: 184 to 185 °C; for `O=C(CCn1ccn2c(=O)cc(-c3ccncc3)nc12)c1ccccc1` (as salt: hydrochloride) [Compound 23, 1-(3-phenyl-3-oxo-propyl)-7-pyridin-4-ylimidazo[1,2-a]pyrimidin-5(1H)-one]: 208 to 211 °C; for `O=c1cc(-c2ccncc2)nc2n(CC[C@H](O)C(F)(F)F)ccn12` [Compound 17, (S)-1-(4,4,4-trifluoro-3-hydroxybutyl)-7-pyridin-4-ylimidazo[1,2-a]pyrimidin-5(1H)-one]: 220 to 222 °C. Under `O=c1cc(-c2ccncc2)nc2n(CC=CC(F)(F)F)ccn12` [Compound 18, 1-(4,4,4-trifluorobut-2-enyl)-7-pyridin-4-ylimidazo[1,2-a]pyrimidin-5(1H)-one] stands 187 to 188 °C; under `O=c1cc(-c2ccncc2)nc2n(C=CCC(F)(F)F)ccn12` [Compound 20, 1-(4,4,4-trifluorobut-1-enyl)-7-pyridin-4-ylimidazo[1,2-a]pyrimidin-5(1H)-one], 221 to 222 °C.

Source of the values: patent US7067521B2, “1-[alkyl], 1-[(heteroaryl)alkyl] and 1-[(aryl)alkyl]-7pyridinyl-imidazo[1,2-alpha]pyrimidin-5(1H)-one derivatives” (sanofi-aventis, priority 2000, dated 2006).
